Reference: PubChem BioAssay AID1259407 (Chemical Carcinogenesis Research Information System (CCRIS), 2018)
Active and inactive are the calls of the source. No rule for the calls is given here.

Test system: CCRIS mutagenicity, Ames/micronucleus/aberration tests
Test: CCRIS mutagenicity studies
Description: The CCRIS database contains chemical records with carcinogenicity, mutagenicity, tumor promotion, and tumor inhibition test results. It was developed by the National Cancer Institute (NCI). Data are derived from studies cited in primary journals, current awareness tools, NCI reports, and other sources. Test results have been reviewed by experts in carcinogenesis and mutagenesis.
CCRIS provides historical information from the years 1985 - 2011. It is no longer updated.
This is an archive assay for CCRIS mutagenicity studies.

[1] = Test System: AMES SALMONELLA TYPHIMURIUM, Strain/Indicator: TA98, Metabolic Activation: NONE, Method: STANDARD PLATE
[2] = Test System: AMES SALMONELLA TYPHIMURIUM, Strain/Indicator: TA100, Metabolic Activation: NONE, Method: STANDARD PLATE
[3] = Test System: AMES SALMONELLA TYPHIMURIUM, Strain/Indicator: TA1535, Metabolic Activation: NONE, Method: STANDARD PLATE

Measured: mutagenic call

CN(C)CCCNc1c2ccccc2nc2c(F)ccc([N+](=O)[O-])c12
active: [1] active; positive | [2] active; positive

Cc1nc2ccccc2s1
active: Test System: Mouse lymphoma, Strain/Indicator: L5178Y (tk+/tk-), Metabolic Activation: None, Method: Suspension/plate active; positive
inactive: Test System: AMES SALMONELLA TYPHIMURIUM, Strain/Indicator: TA98, Metabolic Activation: HAMSTER, LIVER, S-9, AROCLOR 1254, Method: STANDARD PLATE inactive; negative | [1] inactive; negative | Test System: AMES SALMONELLA TYPHIMURIUM, Strain/Indicator: TA98, Metabolic Activation: RAT, LIVER, S-9, AROCLOR 1254, Method: STANDARD PLATE inactive; negative | Test System: AMES SALMONELLA TYPHIMURIUM, Strain/Indicator: TA100, Metabolic Activation: HAMSTER, LIVER, S-9, AROCLOR 1254, Method: STANDARD PLATE inactive; negative | [2] inactive; negative | Test System: AMES SALMONELLA TYPHIMURIUM, Strain/Indicator: TA100, Metabolic Activation: RAT, LIVER, S-9, AROCLOR 1254, Method: STANDARD PLATE inactive; negative | Test System: AMES SALMONELLA TYPHIMURIUM, Strain/Indicator: TA102, Metabolic Activation: HAMSTER, LIVER, S-9, AROCLOR 1254, Method: STANDARD PLATE inactive; negative | Test System: AMES SALMONELLA TYPHIMURIUM, Strain/Indicator: TA102, Metabolic Activation: NONE, Method: STANDARD PLATE inactive; negative | Test System: AMES SALMONELLA TYPHIMURIUM, Strain/Indicator: TA102, Metabolic Activation: RAT, LIVER, S-9, AROCLOR 1254, Method: STANDARD PLATE inactive; negative | Test System: AMES SALMONELLA TYPHIMURIUM, Strain/Indicator: TA1535, Metabolic Activation: HAMSTER, LIVER, S-9, AROCLOR 1254, Method: STANDARD PLATE inactive; negative | [3] inactive; negative | Test System: AMES SALMONELLA TYPHIMURIUM, Strain/Indicator: TA1535, Metabolic Activation: RAT, LIVER, S-9, AROCLOR 1254, Method: STANDARD PLATE inactive; negative | Test System: AMES SALMONELLA TYPHIMURIUM, Strain/Indicator: TA1537, Metabolic Activation: HAMSTER, LIVER, S-9, AROCLOR 1254, Method: STANDARD PLATE inactive; negative | Test System: AMES SALMONELLA TYPHIMURIUM, Strain/Indicator: TA1537, Metabolic Activation: NONE, Method: STANDARD PLATE inactive; negative | Test System: AMES SALMONELLA TYPHIMURIUM, Strain/Indicator: TA1537, Metabolic Activation: RAT, LIVER, S-9, AROCLOR 1254, Method: STANDARD PLATE inactive; negative | Test System: Mouse lymphoma, Strain/Indicator: L5178Y (tk+/tk-), Metabolic Activation: Rat, Liver, S-9, Aroclor 1254, Method: Suspension/plate inactive; negative

C=C(C)C(=O)/C(=C\C(=O)O)OC
inactive: [1] inactive; negative | Test System: AMES SALMONELLA TYPHIMURIUM, Strain/Indicator: TA98, Metabolic Activation: RAT LIVER S-9, DELOREM 103, Method: STANDARD PLATE inactive; negative | Test System: AMES SALMONELLA TYPHIMURIUM, Strain/Indicator: TA98, Metabolic Activation: RAT, LIVER, MICROSOMES, PHENOBARBITAL, Method: STANDARD PLATE inactive; negative | Test System: AMES SALMONELLA TYPHIMURIUM, Strain/Indicator: TA100, Metabolic Activation: NONE, Method: PREINCUBATION inactive; negative | [2] inactive; negative | Test System: AMES SALMONELLA TYPHIMURIUM, Strain/Indicator: TA100, Metabolic Activation: RAT LIVER S-9, DELOREM 103, Method: STANDARD PLATE inactive; negative | Test System: AMES SALMONELLA TYPHIMURIUM, Strain/Indicator: TA100, Metabolic Activation: RAT, LIVER, MICROSOMES, PHENOBARBITAL, Method: STANDARD PLATE inactive; negative | Test System: AMES SALMONELLA TYPHIMURIUM, Strain/Indicator: TA100, Metabolic Activation: RAT, LIVER, S-9, PHENOBARBITAL, Method: PREINCUBATION inactive; negative

c1ccc(CN2CCN=N2)cc1
active: [3] active; positive
